Test results reported in patent US11155525B2 (Sanford Burnham Prebys Medical Discovery Institute, priority 2015, dated 2021).
pEC50: −log10 of the molar value.

Target: T1, human apelin receptor (Homo sapiens, UniProt P35414)
T1 construct: host or cells: CHO cells
T1 sequence (P35414 1-380): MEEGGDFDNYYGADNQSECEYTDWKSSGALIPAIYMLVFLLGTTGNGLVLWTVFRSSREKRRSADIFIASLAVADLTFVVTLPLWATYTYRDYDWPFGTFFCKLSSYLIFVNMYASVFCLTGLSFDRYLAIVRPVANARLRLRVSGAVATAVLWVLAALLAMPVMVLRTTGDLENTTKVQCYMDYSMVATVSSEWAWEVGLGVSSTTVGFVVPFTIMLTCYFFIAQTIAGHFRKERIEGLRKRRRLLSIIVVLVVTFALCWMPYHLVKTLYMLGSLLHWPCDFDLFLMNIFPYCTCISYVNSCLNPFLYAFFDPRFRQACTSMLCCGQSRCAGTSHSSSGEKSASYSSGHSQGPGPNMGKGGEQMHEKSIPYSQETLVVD
Experiment: Measurement of apelin receptor agonist activity (cell-based assay determining the amount of intracellular cAMP)
Conditions: CHO cells stably expressing the human apelin receptor, Forskolin 10 μM, 30 minutes, 100% efficacy = [Pyr1]-apelin-13 0.300 μM, concentration giving 50% efficacy
Description: Measurement of Apelin Receptor Agonist Activity
The apelin receptor agonist activity of the compound represented by formula (I) or (II) of the present invention was measured by cell-based assay for determining the amount of intracellular cAMP.
CHO cells (DiscoveRx Corp.) stably expressing the human apelin receptor were inoculated to wells of a microtiter plate and cultured overnight at 37° C. under conditions of 5% CO2.
Each test compound and Forskolin were added to the wells at the same time. Specifically, the test compound dissolved in DMSO was diluted with a Forskolin-containing buffer [DMEM/F-12, HEPES, no phenol red (#11039, GIBCO)] to prepare a mixed solution containing the test compound at a final concentration of […] (common ratio: 3, serial dilution: 11), Forskolin at a final concentration of 10 μM, and DMSO at a final concentration of 0.3% v/v, which was then added to the wells (N═4).
After 30 minutes, the cells were lysed, and HitHunter cAMP XS+ Assay #90-0075L (DiscoveRx Corp.) was added to the cell lysate. The mixture was left overnight, and the resulting chemiluminescence signals were then detected using Analyst GT (Molecular Devices LLC.) to determine the amount of cAMP.
The amount of cAMP determined by the addition of a positive control [Pyr1]-apelin-13 (final concentration: 0.300 μM) and Forskolin (final concentration: 10 μM) at the same time was used as an index to define 100% efficacy. The amount of cAMP determined by the addition of Forskolin (final concentration: 10 μM) alone was used as an index to define 0% efficacy.
A dose response curve was prepared from the final concentration of the test compound and the determined amount of cAMP using Sigmaplot 12.0.

Row | SMILES | pEC50
1 | COc1cccc(OC)c1-n1c(CCC(C)O)nnc1-c1ccc(C)o1 (stereo not shown) [Example 25, 4-[4-(2,6-Dimethoxyphenyl)-5-(5-methylfuran-2-yl)-4H-1,2,4-triazol-3-yl]butan-2-ol] | 5.76
2 | COc1cccc(OC)c1-n1c(SCCCCC(=O)O)nnc1-c1ccc(C)o1 [Example 49, 5-{[4-(2,6-Dimethoxyphenyl)-5-(5-methylfuran-2-yl)-4H-1,2,4-triazol-3-yl]sulfanyl}pentanoic acid] | 6.41
3 | CCOC(=O)/C=C/c1nnc(-c2ccc(C)o2)n1-c1c(OC)cccc1OC [Example 8, Ethyl (2E)-3-[4-(2,6-dimethoxyphenyl)-5-(5-methylfuran-2-yl)-4H-1,2,4-triazol-3-yl]prop-2-enoate] | 5.80
4 | COc1cccc(OC)c1-n1c(CCC(=O)O)nnc1-c1ccc(C)o1 [Example 13, 3-[4-(2,6-Dimethoxyphenyl)-5-(5-methylfuran-2-yl)-4H-1,2,4-triazol-3-yl]propanoic acid] | 6.80
5 | COc1cccc(OC)c1-n1c(SC(C(=O)O)C(C)C)nnc1-c1ccc(C)o1 (stereo not shown) [Example 43, 2-{[4-(2,6-Dimethoxyphenyl)-5-(5-methylfuran-2-yl)-4H-1,2,4-triazol-3-yl]sulfanyl}-3-methylbutanoic acid] | 7.41
6 | COc1cccc(OC)c1-n1c(SCC(=O)O)nnc1-c1ccc(C)o1 [Example 5, {[4-(2,6-Dimethoxyphenyl)-5-(5-methylfuran-2-yl)-4H-1,2,4-triazol-3-yl]sulfanyl}acetic acid] | 7.59
7 | COC(=O)c1ccccc1-c1nnc(-c2ccc(C)o2)n1-c1c(OC)cccc1OC [Example 58, Methyl 2-[4-(2,6-dimethoxyphenyl)-5-(5-methyl-2-furyl)-4H-1,2,4-triazol-3-yl]benzoate] | 5.55
8 | COc1cccc(OC)c1-n1c(SC(C)C(=O)O)nnc1-c1ccc(C)o1 (stereo not shown) [Example 41, 2-{[4-(2,6-Dimethoxyphenyl)-5-(5-methylfuran-2-yl)-4H-1,2,4-triazol-3-yl]sulfanyl}propanoic acid] | 7.35
9 | CCc1cccc(CC)c1-n1c(SCC(=O)O)nnc1-c1ccc(C)o1 [Example 31, {[4-(2,6-Diethylphenyl)-5-(5-methylfuran-2-yl)-4H-1,2,4-triazol-3-yl]sulfanyl}acetic acid] | 6.76
10 | COc1cccc(OC)c1-n1cnnc1-c1ccc(C)o1 [Example 6, 4-(2,6-Dimethoxyphenyl)-3-(5-methylfuran-2-yl)-4H-1,2,4-triazole] | 6.15
11 | COc1cccc(OC)c1-n1c(SC(C(=O)O)c2cccc3ccccc23)nnc1-c1ccc(C)o1 (stereo not shown) [Example 38, {[4-(2,6-Dimethoxyphenyl)-5-(5-methylfuran-2-yl)-4H-1,2,4-triazol-3-yl]sulfanyl}(naphthalen-1-yl)acetic acid] | 8.05
12 | COc1cccc(OC)c1-n1c(CNS(C)(=O)=O)nnc1-c1ccc(C)o1 [Example 71, N-{[4-(2,6-Dimethoxyphenyl)-5-(5-methylfuran-2-yl)-4H-1,2,4-triazol-3-yl]methyl}methanesulfonamide] | 5.97
13 | COc1cccc(OC)c1-n1c(/C=C/c2cc(=O)n3cc(C)ccc3n2)nnc1-c1ccc(C)o1 [Example 52, 2-{(E)-2-[4-(2,6-Dimethoxyphenyl)-5-(5-methylfuran-2-yl)-4H-1,2,4-triazol-3-yl]ethenyl}-7-methyl-4H-pyrido[1,2-a]pyrimidin-4-one] | 6.66
14 | COc1cccc(OC)c1-n1c(SCc2cc(=O)[nH]c(=O)[nH]2)nnc1-c1ccc(C)o1 [Example 14, 6-({[4-(2,6-Dimethoxyphenyl)-5-(5-methylfuran-2-yl)-4H-1,2,4-triazol-3-yl]sulfanyl}methyl)pyrimidine-2,4(1H,3H)-dione] | 6.37
15 | CCCC(Sc1nnc(-c2ccc(C)o2)n1-c1c(OC)cccc1OC)C(=O)O (stereo not shown) [Example 42, 2-{[4-(2,6-Dimethoxyphenyl)-5-(5-methylfuran-2-yl)-4H-1,2,4-triazol-3-yl]sulfanyl}pentanoic acid] | 7.92
16 | CCOC(=O)COCc1nnc(-c2ccc(C)o2)n1-c1c(OC)cccc1OC [Example 66, Ethyl {[4-(2,6-dimethoxyphenyl)-5-(5-methylfuran-2-yl)-4H-1,2,4-triazol-3-yl]methoxy}acetate] | 6.09
17 | COC(=O)c1cccc(-c2nnc(-c3ccc(C)o3)n2-c2c(OC)cccc2OC)c1 [Example 45, Methyl 3-[4-(2,6-dimethoxyphenyl)-5-(5-methylfuran-2-yl)-4H-1,2,4-triazol-3-yl]benzoate] | 5.88
18 | COc1cccc(OC)c1-n1c(SCC(=O)O)nnc1-c1cc(C)c(C)o1 [Example 63, {[4-(2,6-Dimethoxyphenyl)-5-(4,5-dimethylfuran-2-yl)-4H-1,2,4-triazol-3-yl]sulfanyl}acetic acid] | 6.15
19 | COc1cccc(OC)c1-n1c(CN)nnc1-c1ccc(C)o1 [Example 70, 1-[4-(2,6-Dimethoxyphenyl)-5-(5-methylfuran-2-yl)-4H-1,2,4-triazol-3-yl]methanamine] | 6.42
20 | COc1cccc(OC)c1-n1c(/C=C/C(N)=O)nnc1-c1ccc(C)o1 [Example 19, (2E)-3-[4-(2,6-Dimethoxyphenyl)-5-(5-methylfuran-2-yl)-4H-1,2,4-triazol-3-yl]prop-2-enamide] | 6.77
21 | COc1ccnc(OC)c1-n1c(SCC(=O)O)nnc1-c1ccc(C)o1 [Example 34, {[4-(2,4-Dimethoxypyridin-3-yl)-5-(5-methylfuran-2-yl)-4H-1,2,4-triazol-3-yl]sulfanyl}acetic acid] | 6.82

Now from value to compound:

Row | pEC50 | SMILES
22 | 5.99 | COc1cccc(OC)c1-n1c(CC#N)nnc1-c1ccc(C)o1 [Example 73, [4-(2,6-Dimethoxyphenyl)-5-(5-methylfuran-2-yl)-4H-1,2,4-triazol-3-yl]acetonitrile]
23 | 7.34 | COc1cccc(OC)c1-n1c(SCC2=NOC(=O)C2)nnc1-c1ccc(C)o1 [Example 103, 3-({[4-(2,6-Dimethoxyphenyl)-5-(5-methylfuran-2-yl)-4H-1,2,4-triazol-3-yl]sulfanyl}methyl)-1,2-oxazol-5(4H)-one]
24 | 6.80 | COc1cccc(OC)c1-n1c(SCc2nccs2)nnc1-c1ccc(C)o1 [Example 76, 4-(2,6-Dimethoxyphenyl)-3-(5-methylfuran-2-yl)-5-[(1,3-thiazol-2-ylmethyl)sulfanyl]-4H-1,2,4-triazole]
25 | 6.57 | COc1cccc(OC)c1-n1c(SCC#N)nnc1-c1ccc(C)o1 [Example 84, {[4-(2,6-Dimethoxyphenyl)-5-(5-methylfuran-2-yl)-4H-1,2,4-triazol-3-yl]sulfanyl}acetonitrile]
26 | 6.18 | COc1cccc(OC)c1-n1c(CNS(=O)(=O)c2ccc(C)cc2)nnc1-c1ccc(C)o1 [Example 107, N-{[4-(2,6-Dimethoxyphenyl)-5-(5-methylfuran-2-yl)-4H-1,2,4-triazol-3-yl]methyl}-4-methylbenzenesulfonamide]
27 | 6.44 | COc1cccc(OC)c1-n1c(/C=C/C(=O)N2CCC[C@H]2C(=O)O)nnc1-c1ccc(C)o1 [Example 93, 1-{(2E)-3-[4-(2,6-Dimethoxyphenyl)-5-(5-methylfuran-2-yl)-4H-1,2,4-triazol-3-yl]prop-2-enoyl}-L-proline]
28 | 7.02 | COc1cccc(OC)c1-n1c(CN(C(=O)c2ccc(C)cc2)C(=O)c2ccc(C)cc2)nnc1-c1ccc(C)o1 [Example 72, N-{[4-(2,6-Dimethoxyphenyl)-5-(5-methylfuran-2-yl)-4H-1,2,4-triazol-3-yl]methyl}-4-methyl-N-(4-methylbenzoyl)benzamide]
29 | 7.46 | COc1cccc(OC)c1-n1c(OCC(=O)O)nnc1-c1ccc(C)o1 [Example 88, {[4-(2,6-Dimethoxyphenyl)-5-(5-methylfuran-2-yl)-4H-1,2,4-triazol-3-yl]oxy}acetic acid]
30 | 6.45 | COC(=O)[C@@H]1C[C@@H](O)CN1C(=O)/C=C/c1nnc(-c2ccc(C)o2)n1-c1c(OC)cccc1OC [Example 91, Methyl (4R)-1-{(2E)-3-[4-(2,6-dimethoxyphenyl)-5-(5-methylfuran-2-yl)-4H-1,2,4-triazol-3-yl]prop-2-enoyl}-4-hydroxy-L-prolinate]
31 | 7.01 | COc1cccc(OC)c1-n1c(SCc2nnn[nH]2)nnc1-c1ccc(C)o1 [Example 74, 5-({[4-(2,6-Dimethoxyphenyl)-5-(5-methylfuran-2-yl)-4H-1,2,4-triazol-3-yl]sulfanyl}methyl)-1H-tetrazole]
